Molecules are shown by their SMILES.

For the compound `CS(=O)(=O)c1nnnn1Cc1ccc([N+](=O)[O-])cc1`, the logP (as a rule, a log measure of how a compound divides between an organic and an aqueous phase) turned out to be 2.1.
In the case of `CCCCCCCCS(=O)c1nnnn1-c1ccc([N+](=O)[O-])cc1` (stereo unspecified), the logP turned out to be 4.7.
Take `CCCS(=O)(=O)c1nnnn1-c1ccc([N+](=O)[O-])cc1`: the logP is 2.7.
Under `CS(=O)(=O)c1nnnn1C1CCCCC1` stands 2.1; under `Cc1ccc(-n2nnnc2S(C)(=O)=O)cc1`, 2.5.
For the compound `CCCCCCS(=O)(=O)c1nnnn1-c1ccc([N+](=O)[O-])cc1`, the logP was 4.3.
`CS(=O)(=O)c1nnnn1-c1cccc(C(F)(F)F)c1`: the logP came to 2.9.
Compound `CCCCCCS(=O)c1nnnn1-c1ccc([N+](=O)[O-])cc1` (stereo unspecified) registered a log partition coefficient (logP) of 3.5.
`CC(=O)Oc1ccc(-n2nnnc2S(C)(=O)=O)cc1` yielded a logP of 1.6.
The compound `CN(C)c1ccc(-n2nnnc2S(C)(=O)=O)cc1` displayed a logP of 2.7.
The same measure for `CS(=O)c1nnnn1-c1ccc([N+](=O)[O-])cc1` (stereo unspecified): 1.4.

These data come from the SangsterLogP compilation.
